In data set [1] the test system is SMN2 minigene (full length SMN2 minigene mRNA containing SMN2 exon 7). In words: SMN2 minigene mRNA splicing RT-qPCR assay in cultured cells. It is filed as cell-based, human. The note with it: Homo sapiens, HEK293-H, read-out: EC1.5x for production of full length SMN2 mRNA. Summed up: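 HEK293H cells stably carrying the SMN2-A minigene treated 24 h at 37° C with compound (DMSO, 200× stock), then lysed. Multiplex RT-qPCR (SMN primers 0.4 μM final; 40 cycles) measures full-length exon 7-containing minigene mRNA, normalized to GAPDH and to vehicle; EC1.5x derived and binned by stars.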
For orientation: In qPCR the cycle at which signal appears reflects the starting amount.

The next data set deals with Smn protein. In words: Smn protein assay in cultured cells (SMN HTRF). The data set is classed as cell-based, human. The note with it: 48 hours; for maximum fold (Fold) increase of Smn protein: SMA patient fibroblast cells, 7-point concentration data, fold increase relative to vehicle control (SMN HTRF); for EC1.5x (concentration giving 1.5-fold Smn protein increase): SMA Type 1 patient fibroblast cells (GM03813), 7-point concentration curve, SMN HTRF, concentration producing 1.5 times Smn protein vs DMSO vehicle control, read-out: EC1.5x for Smn protein expression. Put shortly:
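Lysates in RIPA with protease inhibitors are incubated overnight at room temperature with HTRF anti-SMN antibodies. EC1.5x is derived from fold increase in ΔF over vehicle.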

[2] abbreviates: HEK293H cells stably transfected with SMN2-A minigene, 24 hours, 7-point concentration curve, 1.5-fold relative to vehicle-treated cells.

SMILES strings stand for the structures. Where two headings read alike, the source gives them in different places.

Turning to `CCN1CC[C@@H](Nc2ccc3cc(-c4cn5cc(C)nc(C)c5n4)c(=O)oc3c2)C1` [Compound 731, 3-(6,8-dimethylimidazo[1,2-a]pyrazin-2-yl)-7-{[(3R)-1-ethylpyrrolidin-3-yl]amino}-2H-chromen-2-one], the melting point – broadly, the temperature, or range, at which the solid turns liquid – fell in the range of 209 to 215 °C. Further, the EC (1.5-fold) in data set [1] (setting [2]) is less than 0.1 µM. Moreover, the “maximum fold (Fold) increase of Smn protein” value (“maximum fold (Fold) increase” below) in the data set on Smn protein was “*** (fold increase between >1.35 and ≤1.5)”.

For `Cc1cnc2nc(-c3cc4ccc(N5C[C@@H](C)N[C@@H](C)C5)cc4oc3=O)cn2c1` [Compound 243, 7-[(3R,5S)-3,5-dimethylpiperazin-1-yl]-3-(6-methylimidazo[1,2-a]pyrimidin-2-yl)-2H-chromen-2-one], the melting point was 308 to 310 °C. For the same compound, the EC (1.5-fold) in data set [1] (setting [2]) fell in the range of 0.3 to 1 µM. For the same compound, in the data set with Smn protein, the EC1.5x (concentration giving 1.5-fold Smn protein increase) is 3000 to 10000 nM; the “maximum fold (Fold) increase” value is “** (fold increase between >1.2 and ≤1.35)”.

`Cc1cc(F)c2nc(-c3cc4ccc(N5CCN(C)[C@@H](C)C5)cc4oc3=O)cn2c1` [Compound 471, 7-[(3S)-3,4-dimethylpiperazin-1-yl]-3-(8-fluoro-6-methylimidazo[1,2-a]pyridin-2-yl)-2H-chromen-2-one] showed a melting point of 270 to 277 °C. For the same compound, the EC (1.5-fold) in data set [1] (setting [2]) was in the range of 0.1 to 0.3 µM. Moreover, in the data set with Smn protein, the EC1.5x (concentration giving 1.5-fold Smn protein increase) was 300 to 1000 nM; the “maximum fold (Fold) increase” value was “**** (fold increase between >1.5 and ≤1.65)”.

The compound `CCN1CCN(c2ccc3cc(-c4cn5cccc(C)c5n4)c(=O)oc3c2)CC1` [Compound 100, 7-(4-ethylpiperazin-1-yl)-3-(8-methylimidazo[1,2-a]pyridin-2-yl)-2H-chromen-2-one] displayed a melting point of 211 to 213 °C. In addition, in data set [1] (setting [2]), the EC (1.5-fold) was in the range of 0.3 to 1 µM. Moreover, the “maximum fold (Fold) increase” value in the data set on Smn protein was “** (fold increase between >1.2 and ≤1.35)”.

In turn, `Cc1cn2cc(-c3cc4ccc(CCCCN(C)CCO)cc4oc3=O)nc2c(C)n1` [Compound 903, 3-(6,8-dimethylimidazo[1,2-a]pyrazin-2-yl)-7-{4-[(2-hydroxyethyl)(methyl)amino]butyl}-2H-chromen-2-one] yielded a melting point of 156 to 160 °C. Moreover, in data set [1] (setting [2]), the EC (1.5-fold) was less than 0.1 µM. Moreover, in the data set on Smn protein, the EC1.5x (concentration giving 1.5-fold Smn protein increase) was in the range of 300 to 1000 nM; the “maximum fold (Fold) increase” value was “**** (fold increase between >1.5 and ≤1.65)”.

Take `COc1ccn2cc(-c3cc4ccc(N5C[C@@H](C)N[C@@H](C)C5)cc4oc3=O)nc2c1` [Compound 432, 7-[(3R,5S)-3,5-dimethylpiperazin-1-yl]-3-(7-methoxyimidazo[1,2-a]pyridin-2-yl)-2H-chromen-2-one]: the melting point lay within 225 to 230 °C. Moreover, the EC (1.5-fold) in data set [1] (setting [2]) was 1 to 3 µM. For the same compound, the “maximum fold (Fold) increase” value in the data set with Smn protein was “** (fold increase between >1.2 and ≤1.35)”.

On to `COc1cc(-c2cc3ccc(N4CCNCC4)cc3oc2=O)ccc1F` [Compound 576, 3-(4-fluoro-3-methoxyphenyl)-7-(piperazin-1-yl)-2H-chromen-2-one], for which the melting point lay within 153 to 155 °C. Moreover, in data set [1] (setting [2]), the EC (1.5-fold) fell in the range of 1 to 3 µM. Also, in the data set with Smn protein, the “maximum fold (Fold) increase” value was “* (maximum fold increase of ≤1.2)”.

The compound `C[C@@H]1CN(c2ccc3cc(-c4nc5c(F)cccc5o4)c(=O)oc3c2)C[C@H](C)N1` [Compound 39, 7-[(3R,5S)-3,5-dimethylpiperazin-1-yl]-3-(4-fluoro-1,3-benzoxazol-2-yl)-2H-chromen-2-one] showed a melting point of 242 to 243 °C. For the same compound, the EC (1.5-fold) in data set [1] (setting [2]) was in the range of 0.3 to 1 µM. In the data set on Smn protein, the EC1.5x (concentration giving 1.5-fold Smn protein increase) is 3000 to 10000 nM; the “maximum fold (Fold) increase” value is “*** (fold increase between >1.35 and ≤1.5)”.

In turn, `Cc1cn2cc(-c3cc4ccc(CCN(C)C)cc4oc3=O)nc2c(C)n1` [Compound 864, 7-[2-(dimethylamino)ethyl]-3-(6,8-dimethylimidazo[1,2-a]pyrazin-2-yl)-2H-chromen-2-one] displayed a melting point of 219 to 223 °C. Also, in data set [1] (setting [2]), the EC (1.5-fold) is less than 0.1 µM. For the same compound, in the data set with Smn protein, the EC1.5x (concentration giving 1.5-fold Smn protein increase) was less than 300 nM and the “maximum fold (Fold) increase” value is “***** (fold increase >1.65)”.

`Cc1cn2cc(-c3cc4ccc(OC5CCN(CCO)CC5)cc4oc3=O)nc2c(C)n1` [Compound 899, 3-(6,8-dimethylimidazo[1,2-a]pyrazin-2-yl)-7-{[1-(2-hydroxyethyl)piperidin-4-yl]oxy}-2H-chromen-2-one]: the melting point is 165 to 168 °C. Besides, the EC (1.5-fold) in data set [1] (setting [2]) is less than 0.1 µM. For the same compound, in the data set on Smn protein, the EC1.5x (concentration giving 1.5-fold Smn protein increase) is less than 300 nM and the “maximum fold (Fold) increase” value is on record as “***** (fold increase >1.65)”.

Compound `COc1ccncc1-c1cc2ccc(N3CCNCC3)cc2oc1=O` [Compound 234, 3-(4-methoxypyridin-3-yl)-7-(piperazin-1-yl)-2H-chromen-2-one] showed a melting point of 179 to 181 °C. In data set [1] (setting [2]), the EC (1.5-fold) is 3 to 30 µM. Moreover, in the data set with Smn protein, the “maximum fold (Fold) increase” value was “* (maximum fold increase of ≤1.2)”.

Compound `Cc1nccn2cc(-c3cc4ccc(O[C@@H]5CCNC5)cc4oc3=O)nc12` [Compound 610, 3-(8-methylimidazo[1,2-a]pyrazin-2-yl)-7-[(3R)-pyrrolidin-3-yloxy]-2H-chromen-2-one] returned a melting point of 220 to 230 °C. The EC (1.5-fold) in data set [1] (setting [2]) was 0.3 to 1 µM. Further, the “maximum fold (Fold) increase” value in the data set with Smn protein was “** (fold increase between >1.2 and ≤1.35)”.

For `Cc1cn2cc(-c3cc4ccc(N5CCNCC5)cc4oc3=O)cc2cn1` [Cpd 588, 3-(3-methylpyrrolo[1,2-a]pyrazin-7-yl)-7-(piperazin-1-yl)-2H-chromen-2-one], the melting point is 220 °C (dec.). Besides, in data set [1] (setting [2]), the EC (1.5-fold) was less than 0.1 µM. Moreover, in the data set on Smn protein, the EC1.5x (concentration giving 1.5-fold Smn protein increase) is less than 300 nM and the “maximum fold (Fold) increase” value was “***** (fold increase >1.65)”.

As to `CCN1CCN(c2ccc3cc(-c4cn5cc(Cl)nc(C)c5n4)c(=O)oc3c2)CC1` [Compound 766, 3-(6-chloro-8-methylimidazo[1,2-a]pyrazin-2-yl)-7-(4-ethylpiperazin-1-yl)-2H-chromen-2-one], the melting point lay within 228 to 230 °C. Further, in data set [1] (setting [2]), the EC (1.5-fold) was less than 0.1 µM. Also, the “maximum fold (Fold) increase” value with Smn protein is “*** (fold increase between >1.35 and ≤1.5)”.

In turn, `O=C(Oc1ccc2cc(-c3nc4ccccc4s3)c(=O)oc2c1)N1CCNCC1` [Compound 41, 3-(1,3-benzothiazol-2-yl)-2-oxo-2H-chromen-7-yl piperazine-1-carboxylate] registered a melting point of 221 to 225 °C. The EC (1.5-fold) in data set [1] (24 h) was 1 to 3 µM. In addition, the “maximum fold (Fold) increase” value in the data set on Smn protein is “* (maximum fold increase of ≤1.2)”.

For `Cc1cc(F)c2nc(-c3cc4ccc(N5CCN6CCC[C@H]6C5)cc4oc3=O)cn2c1` [Compound 560, 3-(8-fluoro-6-methylimidazo[1,2-a]pyridin-2-yl)-7-[(8aS)-hexahydropyrrolo[1,2-a]pyrazin-2(1H)-yl]-2H-chromen-2-one], the melting point is 296 to 306 °C. In addition, the EC (1.5-fold) in data set [1] (setting [2]) was 0.1 to 0.3 µM. In the data set on Smn protein, the EC1.5x (concentration giving 1.5-fold Smn protein increase) is less than 300 nM; the “maximum fold (Fold) increase” value was “**** (fold increase between >1.5 and ≤1.65)”.

The record behind these values is patent USRE47689E1, “Compounds for treating spinal muscular atrophy” (PTC Therapeutics, Inc., priority 2011, dated 2019).
